US20080014614A1, “Labeling of rapamycin using rapamycin-specific methylases” (Wyeth, priority 2004, published 2008)

System: RapM methylase
Experiment: In vitro methylation of desmethyl-rapamycin substrates by recombinant RapM methylase crude extract, HPLC analysis
Type: biochemical, Streptomyces hygroscopicus
Conditions: recombinant E. coli cell extract, SAM as methyl donor, phosphate buffer pH 7.5, HPLC chromatograms
Protocol: The RapI, RapM and RapQ proteins were then expressed in E. coli strain BL21(DE3) cells using the Novagen pET24 inducible plasmid expression vector. In this vector, cloned genes are expressed from a T7 promoter by T7 RNA polymerase, and expression is activated by IPTG addition.
For crude extracts of the cloned methylase proteins, 25 mL cultures of induced cells were collected by centrifugation and the pellets frozen. The pellets were resuspended in 10 mL 50 mM potassium phosphate buffer, pH 7.5, containing 1 mM β-mercaptoethanol. Thereafter, lysozyme was added to a final concentration of 100 μg/ml and Benzonase™ nuclease was added (1 μL/mL cells). Cells were sonicated for 1 to 2 min on ice and cell debris was removed by centrifugation at ˜30,000×g, 4° C. for 15 min. Supernatants were adjusted to ˜10% glycerol prior to freezing at −70° C.
Approximately 65 μL of crude methylase extract was added to a reaction containing 3 μL of 1 mg/mL 7-desmethyl- rapamycin (7-dmr) solution, 5 μL of 4 mM SAM, 4 μL of 0.1 M MgSO4, and 23 μL of a 0.5 M phosphate buffer, adjusted to pH 7.5. Methylation reactions using the recombinant cell extracts were carried out as described above, except that 50 μL of extract and 38 μL of buffer were used.

| Molecule | Conversion of the desmethyl-rapamycin substrate to rapamycin by RapM methylase (substrate specificity) |
| --- | --- |
| CO[C@@H]1C[C@H](C[C@@H](C)[C@@H]2CC(=O)[C@H](C)/C=C(\C)[C@@H](O)[C@@H](OC)C(=O)[C@H](C)C[C@H](C)\C=C/C=C/C=C(\C)[C@@H](O)C[C@@H]3CC[C@@H](C)[C@@](O)(O3)C(=O)C(=O)N3CCCC[C@H]3C(=O)O2)CC[C@H]1O [7-dmr, 7-O-desmethyl-rapamycin] | generated rapamycin |
| 32-O-desmethyl-rapamycin [32-dmr] | did not modify |
